Results: patent publication US11142515B2, “Pyrazolyl-ureas as kinase inhibitors” (RESPIVERT LIMITED, priority 2014, dated 2021)
pIC50: −log10 of the molar value.

Assays:
p38MAPKγ (MAPK12) = target: T1, p38MAPKγ (MAPK12) (Homo sapiens, UniProt P53778); test: p38 MAPKγ enzyme inhibition (Z-LYTE FRET); type: biochemical; conditions: Table 2B, unit inferred; read-out: p38 MAPKγ (Enzyme Profile)
T1 construct: purchased Life Technologies
T1 sequence (P53778 1-367): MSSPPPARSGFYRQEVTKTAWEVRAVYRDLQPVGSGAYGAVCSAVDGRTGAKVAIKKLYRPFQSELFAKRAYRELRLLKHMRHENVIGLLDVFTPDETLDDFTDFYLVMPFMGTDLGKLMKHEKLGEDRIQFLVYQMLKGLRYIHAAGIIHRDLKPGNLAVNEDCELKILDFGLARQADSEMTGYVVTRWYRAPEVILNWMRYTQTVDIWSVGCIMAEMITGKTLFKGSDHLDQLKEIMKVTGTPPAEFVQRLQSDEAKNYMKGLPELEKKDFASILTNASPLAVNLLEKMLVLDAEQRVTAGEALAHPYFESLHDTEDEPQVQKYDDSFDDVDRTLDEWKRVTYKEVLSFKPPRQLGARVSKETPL
Procedure: (§1) The enzyme inhibitory activities of compounds disclosed herein were determined by FRET using synthetic peptides labelled with both donor and acceptor fluorophores (Z-LYTE, Life Technologies, Paisley, UK).
The inhibitory activities of compounds of the invention against p38MAPKγ (MAPK12: Life Technologies), were evaluated by determining the level of activation/phosphorylation of the target peptide. The enzyme (800 ng/mL, 2.5 μL) was incubated with the test compound (2.5 μL at either 40 μg/mL, 12 μg/mL, 4 μg/mL, 1.2 μg/mL, 0.4 μg/mL, 0.12 μg/mL, 0.04 μg/mL, 0.012 μg/mL, 0.004 μg/mL or 0.0012 μg/mL) for 2 h at RT. The FRET peptides (8 μM, 2.5 μL), and appropriate ATP solution (2.5 μL, 400 μM) were then added to the enzymes/compound mixtures and incubated for 1 h at RT. Development reagent (protease, 5 μL) was added for 1 h prior to detection in a fluorescence microplate reader (EnVision, Perkin Elmer).
(§2) In all cases, the site-specific protease cleaves non-phosphorylated peptide only and eliminates the FRET signal. Phosphorylation levels of each reaction were calculated using the ratio of coumarin emission (donor) over fluorescein emission (acceptor), for which low ratios indicate high phosphorylation and high ratios indicate low phosphorylation levels.

[1] = target: T2, p38 MAPKα isoform (MAPK14) (Homo sapiens, UniProt Q16539); test: p38 MAPKα enzyme inhibition (Z-LYTE FRET); type: biochemical; conditions: Table 2B, unit inferred; read-out: p38 MAPKα (Enzyme Profile)
T2 construct: purchased Life Technologies
T2 sequence (Q16539 whole entry, canonical isoform): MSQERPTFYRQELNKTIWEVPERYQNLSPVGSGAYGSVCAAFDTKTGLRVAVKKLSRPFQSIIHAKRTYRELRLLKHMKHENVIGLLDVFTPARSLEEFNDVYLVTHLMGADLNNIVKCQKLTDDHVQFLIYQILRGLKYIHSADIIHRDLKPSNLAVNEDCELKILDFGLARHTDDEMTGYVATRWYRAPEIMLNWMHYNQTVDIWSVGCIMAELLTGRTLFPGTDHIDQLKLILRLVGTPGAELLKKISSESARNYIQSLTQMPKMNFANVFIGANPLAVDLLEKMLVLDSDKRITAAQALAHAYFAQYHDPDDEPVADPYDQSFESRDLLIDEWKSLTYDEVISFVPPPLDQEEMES
Procedure: as §1
The inhibitory activities of compounds of the invention against the p38 MAPKα isoform (MAPK14: Life Technologies), were evaluated indirectly by determining the level of activation/phosphorylation of the target peptide of the p38 MAPKα down-stream molecule, MAPKAP-K2. The enzyme (40 ng/mL, 2.5 μL) was incubated with the test compound (2.5 μL of either 40 μg/mL, 12 μg/mL, 4 μg/mL, 1.2 μg/mL, 0.4 μg/mL, 0.12 μg/mL, 0.04 μg/mL, 0.012 μg/mL, 0.004 μg/mL or 0.0012 μg/mL) for 2 h at RT. […] Development reagent (protease, 5 μL) was added for 1 h prior to detection in a fluorescence microplate reader (EnVision, Perkin Elmer, Waltham, Mass., USA).
as §2

| pIC50 (p38MAPKγ (MAPK12)) | pIC50 [1] | Compound |
| --- | --- | --- |
| 5.43 | 7.24 | Cc1ccc(-n2nc(C(C)(C)C)cc2NC(=O)Nc2ccc(OCc3ccnc(Nc4cnc(C(=O)N5CCC(F)(F)CC5)cn4)c3)c3ccccc23)cc1 [Example 246, 1-(3-(tert-butyl)-1-(p-tolyl)-1H-pyrazol-5-yl)-3-(4-((2-((5-(4,4-difluoropiperidine-1-carbonyl)pyrazin-2-yl)amino)pyridin-4-yl)methoxy)naphthalen-1-yl)urea] |
| 7.27 | 8.19 | COCCNC(=O)Cc1cncc(Nc2cc(COc3ccc(NC(=O)Nc4cc(C(C)(C)C)nn4-c4ccc(C)cc4)c4ccccc34)ccn2)n1 [Example 209, 2-(6-((4-(((4-(3-(3-(tert-butyl)-1-(p-tolyl)-1H-pyrazol-5-yl)ureido)naphthalen-1-yl)oxy)methyl)pyridin-2-yl)amino)pyrazin-2-yl)-N-(2-methoxyethyl)acetamide] |
| 7.41 | 8.01 | COCc1ccc(-n2nc(C(C)(C)C)cc2NC(=O)Nc2ccc(OCc3ccnc(Nc4cnccn4)c3)c3ccccc23)cc1 [Example 64] |
| 7.11 | 8.24 | COc1cccc(-n2nc(C(C)(C)C)cc2NC(=O)Nc2ccc(OCc3ccnc(Nc4cnccn4)c3)c3ccccc23)c1 [Example 142, 1-(3-(tert-butyl)-1-(3-methoxyphenyl)-1H-pyrazol-5-yl)-3-(4-((2-(pyrazin-2-ylamino)pyridin-4-yl)methoxy)naphthalen-1-yl) urea] |
| < 4.82 | 6.36 | COCC#Cc1cncc(Nc2cc(COc3ccc(NC(=O)Nc4cc(C(C)(C)C)nn4-c4ccc(C)cc4)c4ccccc34)ccn2)n1 [Example 158, 1-(3-(tert-butyl)-1-(p-tolyl)-1H-pyrazol-5-yl)-3-(4-((2-((6-(3-methoxyprop-1-yn-1-yl)pyrazin-2-yl)amino)pyridin-4-yl)methoxy)naphthalen-1-yl)urea] |
| 6.24 | 7.22 | CCc1cncc(Nc2cc(COc3ccc(NC(=O)Nc4cc(C(C)(C)C)nn4-c4cc(F)cc(OC)c4)c4ccccc34)ccn2)n1 [Example 211, 1-(3-(tert-butyl)-1-(3-fluoro-5-methoxyphenyl)-1H-pyrazol-5-yl)-3-(4-((2-((6-ethylpyrazin-2-yl)amino)pyridin-4-yl)methoxy)naphthalen-1-yl)urea] |
| 7.64 | 8.80 | COc1cncc(Nc2cc(COc3ccc(NC(=O)Nc4cc(C(C)(C)C)nn4-c4ccc(CO)cc4)c4ccccc34)ccn2)n1 [Example 110, 1-(3-(tert-butyl)-1-(4-(hydroxymethyl)phenyl)-1H-pyrazol-5-yl)-3-(4-((2-((6-methoxypyrazin-2-yl)amino)pyridin-4-yl)methoxy)naphthalen-1-yl) urea] |
| < 4.85 | 7.37 | CCc1cccc(-n2nc(C(C)(C)C)cc2NC(=O)Nc2ccc(OCc3ccnc(Nc4cnc(C(=O)N5CCCC5)cn4)c3)c3ccccc23)c1 [Example 230, 1-(3-(tert-butyl)-1-(3-ethyl-phenyl)-1H-pyrazol-5-yl)-3-(4-((2-((5-(pyrrolidine-1-carbonyl)pyrazin-2-yl)amino)pyridin-4-yl)methoxy)naphthalen-1-yl)urea] |
| < 4.85 | 7.72 | Cc1ccc(-n2nc(C(C)(C)C)cc2NC(=O)Nc2ccc(OCc3ccnc(Nc4cnc(C(=O)N5CC[C@H](F)C5)cn4)c3)c3ccccc23)cc1 [Example 242, (S)-1-(3-(tert-butyl)-1-(p-tolyl)-1H-pyrazol-5-yl)-3-(4-((2-((5-(3-fluoropyrrolidine-1-carbonyl)pyrazin-2-yl)amino)pyridin-4-yl)methoxy)naphthalen-1-yl)urea] |
| 5.49 | 7.43 | COc1cncc(Nc2cc(COc3ccc(NC(=O)Nc4cc(C(C)(C)C)nn4-c4csc(C)c4)c4ccccc34)ccn2)n1 [Example 113, 1-(3-(tert-butyl)-1-(5-methylthiophen-3-yl)-1H-pyrazol-5-yl)-3-(4-((2-((6-methoxypyrazin-2-yl)amino)pyridin-4-yl)methoxy)naphthalen-1-yl) urea] |
